Experimental data reported in PMC4627800, “Allelic Variation of Cytochrome P450s Drives Resistance to Bednet Insecticides in a Major Malaria Vector” (PLoS Genetics, 2015).
Like-named read-outs stand apart in the source and are kept apart here. Values belong to the molecule of their own block, whether it stands above or below them.

Columns and labels:
MALCYP6P9a = MALCYP6P9a (Anopheles funestus, UniProt B5AII6); assay: Pyrethroid depletion (metabolism) assay with recombinant enzyme; format: biochemical; conditions: 20μM insecticide, 1 hour, vs -NADPH
Description: (§5) Membrane expressing recombinant CYP6P9a/-b and AgCPR, and reconstituted cytochrome b5 were added to the side of the tube and pre-incubated for 5 minutes at 30°C, with shaking at 1,200 rpm to activate the membrane. 20μM of test insecticide was then added into the final volume of 0.2ml (~2.5% v/v methanol), and reaction started by vortexing at 1,200 rpm and 30°C for 1 hour. Reactions were quenched with 0.1ml ice-cold methanol and incubated for 5 more minutes. Tubes were then centrifuged at 16,000 rpm and 4°C for 15 minutes, and 150μl of supernatant transferred into HPLC vials for analysis. Reactions were carried out in triplicates with experimental samples (+NADPH) and negative controls (-NADPH). 100μl of sample was loaded onto an isocratic mobile phase (90:10 v/v methanol to water) with a flow rate of 1ml/min, monitoring wavelength of 226nm and peaks separated with a 250mm C18 column (Acclaim 120, Dionex) on Agilent 1260 Infinity at 23°C. Enzyme activity was calculated as percentage depletion (the difference in the amount of insecticide(s) remaining in the +NADPH tubes compared with the–NADPH) and a t-test used for statistical analysis.

FANGCYP6P9b [1] = molecular target: T1, FANGCYP6P9b (Anopheles funestus, UniProt A0A0S1RZ61); assay: as above; format: biochemical; conditions: 20μM insecticide, 1 hour, vs -NADPH
Description: (§6) To establish whether allelic variation in CYP6P9a and CYP6P9b impact their metabolic activities toward insecticides, pyrethroids were screened with the recombinant enzymes from these genes. […] Membrane expressing recombinant CYP6P9a/-b and AgCPR, and reconstituted cytochrome b5 were added to the side of the tube and pre-incubated for 5 minutes at 30°C, with shaking at 1,200 rpm to activate the membrane. 20μM of test insecticide was then added into the final volume of 0.2ml (~2.5% v/v methanol), and reaction started by vortexing at 1,200 rpm and 30°C for 1 hour. Reactions were quenched with 0.1ml ice-cold methanol and incubated for 5 more minutes. Tubes were then centrifuged at 16,000 rpm and 4°C for 15 minutes, and 150μl of supernatant transferred into HPLC vials for analysis. Reactions were carried out in triplicates with experimental samples (+NADPH) and negative controls (-NADPH). 100μl of sample was loaded onto an isocratic mobile phase (90:10 v/v methanol to water) with a flow rate of 1ml/min, monitoring wavelength of 226nm and peaks separated with a 250mm C18 column (Acclaim 120, Dionex) on Agilent 1260 Infinity at 23°C. Enzyme activity was calculated as percentage depletion (the difference in the amount of insecticide(s) remaining in the +NADPH tubes compared with the–NADPH) and a t-test used for statistical analysis.

MALCYP6P9b [2] = molecular target: T2, MALCYP6P9b (Anopheles funestus, UniProt B5AII7); assay: as above; format: biochemical; conditions: 20μM insecticide, 1 hour, vs -NADPH
UGANCYP6P9b [3] = molecular target: T3, UGANCYP6P9b (Anopheles funestus, UniProt A0A0S1S7Y0); assay: as above; format: biochemical; conditions: 20μM insecticide, 1 hour, vs -NADPH
BENCYP6P9b [4] = molecular target: T4, BENCYP6P9b (Anopheles funestus, UniProt A0A0S1S7Y0); assay: as above; format: biochemical; conditions: 20μM insecticide, 1 hour, vs -NADPH
Description: as §6

FANGCYP6P9a [5] = molecular target: T5, FANGCYP6P9a (Anopheles funestus, UniProt K7Z0P3); assay: as above; format: biochemical; conditions: 20μM insecticide, 1 hour, vs -NADPH
Description: as §5

BENCYP6P9a [6] = molecular target: T6, BENCYP6P9a (Anopheles funestus, UniProt A0A0S1RZ75); assay: as above; format: biochemical; conditions: 20μM insecticide, 1 hour, vs -NADPH
Description: as §5

UGANCYP6P9a = UGANCYP6P9a (Anopheles funestus, UniProt B5AII6); assay: as above; format: biochemical; conditions: 20μM insecticide, 1 hour, vs -NADPH
Description: as §5

CYP1A2 Glu^318Asp = tested on: CYP1A2 Glu^318Asp; parameters: method as in PMID 7910007; conditions: human CYP1A2 ref [37]; cited from earlier work
BENCYP6P9b [7] = molecular target: T4, BENCYP6P9b; assay: Steady-state kinetics of pyrethroid metabolism; format: biochemical
Description: (§1) Reactions were performed in triplicates both for +NADPH (experimental tubes) and–NADPH (negative control). K m and V max were established from the plot of substrate concentrations against the initial velocities and fitting of the data to the Michaelis-Menten module using the least squares non-linear regression, as described in the GraphPad Prism 6.03 Software (GraphPad Inc., La Jolla, CA, USA).

MALCYP6P9b [8] = molecular target: T2, MALCYP6P9b; assay: Steady-state kinetics of pyrethroid metabolism; format: biochemical
Description: as §1

BENCYP6P9a [9] = molecular target: T6, BENCYP6P9a; assay: Steady-state kinetics of pyrethroid metabolism; format: biochemical
Description: as §1

UGANCYP6P9b [10] = molecular target: T3, UGANCYP6P9b; assay: Steady-state kinetics of pyrethroid metabolism; format: biochemical
Description: as §1

CYP6M2 = tested on: CYP6M2; parameters: method as in ref [5] (S1 Text); conditions: An. gambiae CYP6M2 ref [5] (S1 Text); cited from earlier work
[11] = tested on: transgenic flies over-expressing MALCYP6P9b; conditions: 0.15% deltamethrin paper
Description: (§2) Primers used for this PCR are given in S8 Table. PCR conditions, cloning techniques, construction of transgenic flies and expression of candidate genes was conducted as described in previous studies, with more details provided in S1 Text. For control group, flies with the same background as the UAS transgenic lines but devoid of the UAS construct with the candidate gene were crossed with the driver Actin5C-GAL4 line to generate Actin5C-GAL4-null flies.
(§3) These papers were then rolled and introduced into 45 cc plastic vials. The vials were then plugged with cotton wool soaked in 5% sucrose. 20–25 (2–4 days old, post-eclosion F1 females) were selected for the bioassays and introduced into the vials. Mortality plus knockdown was scored after 1 hr, 2 hrs, 3 hrs, 6 hrs, 12 hrs and 24 hrs post-exposure to the discriminating dose of the insecticides.

[12] = tested on: transgenic flies over-expressing MALCYP6P9a; conditions: 0.15% deltamethrin paper, 3 hrs
Description: as §2, §3

[13] = tested on: transgenic flies over-expressing FANGCYP6P9b; conditions: 0.15% deltamethrin paper
Description: as §2, §3

[14] = tested on: transgenic flies over-expressing FANGCYP6P9a; conditions: 0.15% deltamethrin paper, 3 hrs
Description: as §2, §3

FANGCYP6P9b [15] = molecular target: T1, FANGCYP6P9b
Description: as §1

FANGCYP6P9a [16] = molecular target: T5, FANGCYP6P9a
Description: as §1

[17] = tested on: CYP6P9a/CYP6P9b (MALCYP6P9a, BENCYP6P9a, MALCYP6P9b, UGANCYP6P9b); assay: in vitro; format: biochemical, Anopheles funestus; conditions: Anopheles funestus, pH 7.4, inhibition of DEF dealkylation, DDT value for all proteins excepting UGANCYP6P9b
Description: (§4) To further assess differences in the degree of binding of the various recombinant proteins to insecticides from different classes, inhibition assay was conducted with DEF and ten insecticides (inhibitors). The potent P450s inhibitor miconazole was utilised as a positive control inhibitor. IC50 determination was conducted as described in previous studies. […]. The 96 well-plate was pre-incubated for 5 minutes at 37°C and then 25μl regeneration buffer (7.8mg glucose-6-phosphate (G6P), 0.25mM MgCl2, 1.7mg NADP, 6U/ml glucose-6-phosphate dehydrogenase and 2% w/v NaHCO3) incorporated. Fluorescence was monitored for 21 cycles at interval of 1 minute with shaking at every step. Results were analysed using Magellan v6.2 software and inhibition at each inhibitor concentration and incubation time calculated as residual control activity towards DEF.

UGANCYP6P9b [18] = molecular target: T3, UGANCYP6P9b; assay: Fluorogenic probe O-dealkylation, initial testing; format: biochemical; conditions: UGANCYP6P9b vs UGANCYP6P9a; 1μM probe
Description: Four probes: 7-ethoxyresurofin (7-ER), 7-ethoxy-4-trifluoromethylcoumarin (7-EFC), 7-methoxy-4-trifluoromethylcoumarin (MFC) and diethoxyfluorescein (DEF) were initially tested with the various recombinant CYP6P9a and CYP6P9b proteins. In a total volume of 225μl containing ~10pmol P450, buffered with 50mM potassium phosphate buffer (KPi at pH 7.4 with 5mM MgCl2), 1μM probe substrate was added. Membranes were activated for 5 minutes at 37°C in fluorescence spectrophotometer Infinite M200 (TECAN) before 25μl NADPH regeneration buffer (1mM glucose-6-phosphate (G6P), 0.25mM MgCl2, 0.1mM NADP and 1U/ml glucose-6-phosphate dehydrogenase (G6PDH) prepared in KPi pH 7.4) was added. All reactions were conducted in three replicates with negative control (–NADPH) devoid of the regeneration buffer. […]. Results were analysed using Magellan v6.2 software.

CYP6Z8 = tested on: CYP6Z8; parameters: method as in ref [8] (S1 Text); conditions: cited from earlier work; for Kcat: Ae. aegypti CYP6Z8 ref [8] (S1 Text)
CYP6Z2 = conditions: cited from earlier work
CYP6P9a/CYP6P9b = assay: in vitro; format: biochemical, Anopheles funestus; conditions: inhibition of DEF dealkylation; MALCYP6P9a, BENCYP6P9a, MALCYP6P9b, UGANCYP6P9b; DDT value for all proteins excepting UGANCYP6P9b
Description: as §4

UGANCYP6P9b [19] = molecular target: T3, UGANCYP6P9b; assay: Inhibition of DEF dealkylation by insecticides (IC50); format: biochemical; conditions: compared with averagely 10μM for the other proteins
Description: as §4

Compound: CCOc1ccc(C(C)(C)COCc2cccc(Oc3ccccc3)c2)cc1 [etofenprox]
- Percentage depletion (MALCYP6P9a): 46.04±1.26 %
- Percentage depletion (FANGCYP6P9b [1]): 16.88±3.06%
- Percentage depletion (MALCYP6P9b [2]): 71.59±1.42 %
- Percentage depletion (UGANCYP6P9b [3]): 57.91±1.55 %
- Percentage depletion (BENCYP6P9b [4]): 37.15±4.15 %
- Percentage depletion (FANGCYP6P9a [5]): 7.28±1.53%
- Percentage depletion (BENCYP6P9a [6]): 41.22±1.54 %
- Percentage depletion (UGANCYP6P9a): 42.55±1.03 %

Compound: CCOc1ccc2ccc(=O)oc2c1 [7-ethoxycoumarin]
- increase of Kcat of O-dealkylation by Glu^318Asp substitution (CYP1A2 Glu^318Asp): 13 fold

Compound: CC1(C)[C@H](C(=O)O[C@H](C#N)c2cccc(Oc3ccccc3)c2)[C@@H]1C=C(Br)Br [deltamethrin]
- Kcat (BENCYP6P9b [7]): 13.63±5.40^b min^-1
- Kcat (MALCYP6P9b [8]): 12.09±1.44^b min^-1
- Km (MALCYP6P9b [8]): 9.9 ± 1.65 µM
- Kcat (BENCYP6P9a [9]): 8.78±2.62^a min^-1
- Kcat (UGANCYP6P9b [10]): 10.44±4.00^b min^-1
- Km (CYP6M2): 2 µM
- Percentage depletion (MALCYP6P9a): 68.38±1.83 %
- Percentage depletion (FANGCYP6P9b [1]): 6.2±1.5%
- Percentage depletion (MALCYP6P9b [2]): more than 80%
- Percentage depletion (MALCYP6P9b [2]; listed as Deltamethrin): 81.69±2.27 %
- Percentage depletion (UGANCYP6P9b [3]): 62.53±4.04 %
- mortality ([11]; 1 hr): 1.5%
- mortality ([11]; 2 hrs): 7.5%
- mortality ([11]; 3 hrs): 12.5%
- mortality ([11]; 6 hrs): 16%
- mortality ([11]; 12 hrs): 21%
- mortality ([11]; 24 hrs): 41%
- mortality [12]: < 30%
- mortality ([13]; 1 hr): 20%
- mortality ([13]; 2 hrs): 53%
- mortality ([13]; 3 hrs): 62%
- mortality ([13]; 6 hrs): 70%
- mortality ([13]; 12 hrs): 81%
- mortality ([13]; 24 hrs): 93%
- mortality [14]: 52%
- Percentage depletion (BENCYP6P9b [4]): 62.03±1.14 %
- Percentage depletion (FANGCYP6P9a [5]): 18.11±2.15%
- Percentage depletion (BENCYP6P9a [6]): 59.54±5.11 %
- Percentage depletion (UGANCYP6P9a): 57.9±2.74 %
- Kcat (FANGCYP6P9b [15]): 0.082 ± 0.0137 s⁻¹
- Km (FANGCYP6P9b [15]): 19.5 ± 5.53 µM
- Kcat (FANGCYP6P9a [16]): 0.0812 ± 0.0343 s⁻¹

Compound: CNC(=O)Oc1ccccc1OC(C)C [propoxur]
- IC50 [17]: > 25 µM

Compound: CC1(C)[C@H](C(=O)O[C@H](C#N)c2cccc(Oc3ccccc3)c2)[C@@H]1/C=C(\Cl)C(F)(F)F (racemic) [λ-cyhalothrin]
- Percentage depletion (MALCYP6P9a): 75.41±1.72%
- Percentage depletion (FANGCYP6P9b [1]): 15.49±3.13%
- Percentage depletion (UGANCYP6P9b [3]): 78.76±1.31 %
- Percentage depletion (BENCYP6P9b [4]): 49.35±4.41 %
- Percentage depletion (FANGCYP6P9a [5]): 15.46±4.43%
- Percentage depletion (BENCYP6P9a [6]): 52.45±1.74 %
- Percentage depletion (UGANCYP6P9a): 47.74±1.5%

- O-dealkylation activity, fold of UGANCYP6P9a (UGANCYP6P9b [18]): 17.9 fold
Compound: CCOc1ccc2c(C(F)(F)F)cc(=O)oc2c1 [7-EFC, 7-ethoxy-4-trifluoromethylcoumarin]

Compound: Cc1c(COC(=O)[C@@H]2[C@H](/C=C(\Cl)C(F)(F)F)C2(C)C)cccc1-c1ccccc1 (racemic) [bifenthrin]
- Percentage depletion (MALCYP6P9a): 60.48±2.65 %
- Percentage depletion (FANGCYP6P9b [1]): 22.38±5.08%
- Percentage depletion (MALCYP6P9b [2]): more than 80%
- Percentage depletion (MALCYP6P9b [2]; listed as Bifenthrin): 81.6±0.25 %
- Percentage depletion (UGANCYP6P9b [3]): 88.8±1.61 %
- Percentage depletion (BENCYP6P9b [4]): 89.19±1.01 %
- Percentage depletion (FANGCYP6P9a [5]): 16.6±5.41%
- Percentage depletion (BENCYP6P9a [6]): 51.02±0.75 %
- Percentage depletion (UGANCYP6P9a): 50.31±3.8 %

Compound: O=c1ccc2nc3ccc(OCc4ccccc4)cc3oc-2c1 [benzyloxyresorufin]
- Kcat (CYP6Z8): 0.00162 s⁻¹
- Km (CYP6Z8; Aedes aegypti CYP6Z8-mediated de-benzylation ref [8] (S1 Text)): ~0.13 µM
- Km (CYP6Z2; An. gambiae CYP6Z2-mediated de-benzylation ref [7] (S1 Text)): ~0.13 µM
- Kcat (CYP6Z2; An. gambiae CYP6Z2 ref [7] (S1 Text)): ~ 1.5 min^-1

Compound: CCOc1ccc2nc3ccc(=O)cc-3oc2c1 [ethoxyresorufin]
- Kcat (CYP6Z8): 0.0198 s⁻¹

Compound: CNC(=O)Oc1cccc2c1OC(C)(C)O2 [bendiocarb]
- IC50 [17]: > 25 µM

Compound: Clc1ccc(C(c2ccc(Cl)cc2)C(Cl)(Cl)Cl)cc1 [DDT]
- IC50 (CYP6P9a/CYP6P9b): ~10 µM
- IC50 (UGANCYP6P9b [19]): much higher value
